Data: PubChem BioAssay AID248 (DTP/NCI, 2004)
Values joined by “and” are separate entries in the source; they are usually repeats but may differ in a detail not shown here. Equal values may be shown once. Toxic doses and inconclusive results are not listed. Cut-off read from the data, not from the text of the source: active = T/C of 150% or more; inactive = T/C below 125%.

System: L1210 leukemia ip in BDF1 mice, survival T/C
Experiment: NCI In Vivo Anticancer Drug Screen. Data for tumor model L1210 Leukemia (intraperitoneal) in B6D2F1 (BDF1) mice
Settings: endpoint: mean survival time, higher = longer survival
Procedure, shortened: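 Antitumor effect is assessed in tumor-bearing animals. Survival in the compound arm is compared with a vehicle-dosed control arm and expressed as their quotient.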

[1] = dose: 100.0 mg/kg/injection, schedule: Q04DX003 (ip), vehicle: saline with Tween-80
[2] = dose: 200.0 mg/kg/injection, schedule: Q04DX003 (ip), vehicle: saline with Tween-80
[3] = dose: 400.0 mg/kg/injection, schedule: Q04DX003 (ip), vehicle: saline with Tween-80
[4] = dose: 50.0 mg/kg/injection, schedule: Q01DX009 (ip), vehicle: saline
[5] = dose: 100.0 mg/kg/injection, schedule: Q01DX009 (ip), vehicle: saline
[6] = dose: 100.0 mg/kg/injection, schedule: Q01DX001 (ip), vehicle: saline
[7] = dose: 200.0 mg/kg/injection, schedule: Q01DX001 (ip), vehicle: saline
[8] = dose: 400.0 mg/kg/injection, schedule: Q01DX001 (ip), vehicle: saline
[9] = dose: 25.0 mg/kg/injection, schedule: Q01DX009 (ip), vehicle: saline
[10] = dose: 75.0 mg/kg/injection, schedule: Q01DX001 (ip), vehicle: saline
[11] = dose: 150.0 mg/kg/injection, schedule: Q01DX001 (ip), vehicle: saline
[12] = dose: 300.0 mg/kg/injection, schedule: Q01DX001 (ip), vehicle: saline
[13] = dose: 100.0 mg/kg/injection, schedule: Q04DX002 (ip), vehicle: Klucel (hydroxypropylcellulose) (HPC)
[14] = dose: 200.0 mg/kg/injection, schedule: Q04DX002 (ip), vehicle: Klucel (hydroxypropylcellulose) (HPC)
[15] = dose: 400.0 mg/kg/injection, schedule: Q04DX002 (ip), vehicle: Klucel (hydroxypropylcellulose) (HPC)
[16] = dose: 100.0 mg/kg/injection, schedule: Q01DX009 (ip), vehicle: saline with Tween-80
[17] = dose: 200.0 mg/kg/injection, schedule: Q01DX009 (ip), vehicle: saline with Tween-80
[18] = dose: 50.0 mg/kg/injection, schedule: Q01DX009 (ip), vehicle: Klucel (hydroxypropylcellulose) (HPC)
[19] = dose: 100.0 mg/kg/injection, schedule: Q01DX009 (ip), vehicle: Klucel (hydroxypropylcellulose) (HPC)
[20] = dose: 100.0 mg/kg/injection, schedule: Q01DX001 (ip), vehicle: carboxymethylcellulose (CMC)
[21] = dose: 200.0 mg/kg/injection, schedule: Q01DX001 (ip), vehicle: carboxymethylcellulose (CMC)
[22] = dose: 400.0 mg/kg/injection, schedule: Q01DX001 (ip), vehicle: carboxymethylcellulose (CMC)

Measured: T/C

O=S(=O)(CC1CC2C=CC1C2)c1ccc(Br)cc1 (stereo not drawn)
inactive: [1] 108 % of control | [2] 101 % of control | [3] 101 % of control

OCC1SC(O)C(O)C(O)C1O (stereo not drawn)
inactive: [4] 102 % of control | dose: 50.0 mg/kg/injection, schedule: Q01DX009 (oral), vehicle: saline 100 % of control | [5] 102 % of control | dose: 100.0 mg/kg/injection, schedule: Q01DX009 (oral), vehicle: saline 102 % of control | dose: 200.0 mg/kg/injection, schedule: Q01DX009 (ip), vehicle: saline 112 % of control | dose: 200.0 mg/kg/injection, schedule: Q01DX009 (oral), vehicle: saline 98 % of control | dose: 400.0 mg/kg/injection, schedule: Q01DX009 (ip), vehicle: saline 109 % of control | dose: 400.0 mg/kg/injection, schedule: Q01DX009 (oral), vehicle: saline 96 % of control

CC(C)(CO)N=Cc1cc([N+](=O)[O-])ccc1O
inactive: [6] 110 % of control | [7] 107 % of control | [8] 110 % of control

CCC(C)C(C(=O)OCCC[N+]1(C)CCCCC1)c1ccccc1 (stereo not drawn)
inactive: dose: 12.5 mg/kg/injection, schedule: Q01DX009 (ip), vehicle: saline 96 % of control | dose: 12.5 mg/kg/injection, schedule: Q04DX003 (ip), vehicle: saline 96 % of control | [9] 100 % of control | dose: 25.0 mg/kg/injection, schedule: Q04DX003 (ip), vehicle: saline 96 % of control | [4] 94 % of control | dose: 50.0 mg/kg/injection, schedule: Q04DX003 (ip), vehicle: saline 94 % of control

O=C1Nc2ccccc2C1(O)c1ccccc1 (stereo not drawn)
inactive: [10] 103 % of control | [11] 101 % of control | [12] 92 % of control

O=C(NC1CCCCC1)C1C2CC3OC(=O)C1C3C2 (stereo not drawn)
inactive: [1] 101 % of control | dose: 100.0 mg/kg/injection, schedule: Q04DX003 (ip), vehicle: saline 104 % of control | [2] 97 % of control | dose: 200.0 mg/kg/injection, schedule: Q04DX003 (ip), vehicle: saline 98 % of control | [3] 101 % of control | dose: 400.0 mg/kg/injection, schedule: Q04DX003 (ip), vehicle: saline 104 % of control

O=C(Nc1cccc(C2=NCCN2)c1)c1cc(C(=O)Nc2cccc(C3=NCCN3)c2)cc(C(=O)Nc2cccc(C3=NCCN3)c2)c1
inactive: dose: 1.9 mg/kg/injection, schedule: Q01DX Z (ip), vehicle: carboxymethylcellulose (CMC) 97 % of control | dose: 2.8 mg/kg/injection, schedule: Q01DX Z (ip), vehicle: carboxymethylcellulose (CMC) 101 % of control | dose: 4.3 mg/kg/injection, schedule: Q01DX Z (ip), vehicle: carboxymethylcellulose (CMC) 97 % of control | dose: 6.5 mg/kg/injection, schedule: Q01DX Z (ip), vehicle: carboxymethylcellulose (CMC) 97 % of control and 103 % of control | dose: 9.7 mg/kg/injection, schedule: Q01DX Z (ip), vehicle: carboxymethylcellulose (CMC) 100 % of control | dose: 14.6 mg/kg/injection, schedule: Q01DX Z (ip), vehicle: carboxymethylcellulose (CMC) 96 % of control | dose: 22.0 mg/kg/injection, schedule: Q01DX Z (ip), vehicle: carboxymethylcellulose (CMC) 97 % of control | dose: 22.0 mg/kg/injection, schedule: Q01DX Z (ip), vehicle: saline 98 % of control | dose: 33.0 mg/kg/injection, schedule: Q01DX Z (ip), vehicle: saline 100 % of control

Cc1ccccc1NC(=O)Oc1ccccc1-c1ccccc1
inactive: [13] 103 % of control | [14] 118 % of control | [15] 118 % of control

CC(O)C(O)C(O)CO (stereo not drawn)
inactive: [6] 96 % of control | [7] 111 % of control | [8] 94 % of control

O=C(O)c1ccc(-c2ccc(C(=O)O)cc2I)c(I)c1
inactive: [16] 92 % of control | [1] 91 % of control | [17] 87 % of control | [2] 96 % of control | [3] 94 % of control

O=[N+]([O-])/C=C/c1cccc2ccccc12
inactive: [10] 94 % of control | [11] 94 % of control | [12] 101 % of control

O=C(O)C1CC=CCC1c1ccccc1 (stereo not drawn)
inactive: dose: 100.0 mg/kg/injection, schedule: Q04DX003 (ip), vehicle: other 96 % of control | dose: 200.0 mg/kg/injection, schedule: Q04DX003 (ip), vehicle: other 96 % of control | dose: 400.0 mg/kg/injection, schedule: Q04DX003 (ip), vehicle: other 101 % of control

Cc1ccccc1S(=O)(=O)NC1c2ccccc2Oc2ccccc21
inactive: [10] 96 % of control | dose: 75.0 mg/kg/injection, schedule: Q01DX009 (ip), vehicle: saline 86 % of control | [11] 86 % of control | [12] 86 % of control

O=C(NC1CCCCC1)Oc1cc(CCl)cc(CCl)c1
inactive: [18] 112 % of control | [19] 112 % of control

Cn1c[n+](C2OC(CO)C(O)C2O)c2nc(N)[nH]c(=O)c21 (stereo not drawn)
inactive: dose: 50.0 mg/kg/injection, schedule: Q01DX001 (ip), vehicle: carboxymethylcellulose (CMC) 92 % of control | [20] 92 % of control | [21] 97 % of control | [22] 93 % of control

O=c1nccc(Nc2ccccc2)[nH]1
inactive: dose: 25.0 mg/kg/injection, schedule: Q01DX009 (ip), vehicle: Klucel (hydroxypropylcellulose) (HPC) 98 % of control | [18] 93 % of control | [19] 98 % of control

CN(C)CCNC(=O)CN
inactive: [6] 102 % of control | [7] 107 % of control | [8] 107 % of control

CC1(C)OC(COS(C)(=O)=O)C2OC(C)(C)OC(COS(C)(=O)=O)C2O1 (stereo not drawn)
inactive: [20] 104 % of control | [21] 101 % of control | [22] 104 % of control

CCOc1ccccc1-c1nc2ccccc2s1
inactive: dose: 100.0 mg/kg/injection, schedule: Q04DX003 (ip), vehicle: DMSO 89 % of control | dose: 200.0 mg/kg/injection, schedule: Q04DX003 (ip), vehicle: DMSO 89 % of control | dose: 400.0 mg/kg/injection, schedule: Q04DX003 (ip), vehicle: DMSO 103 % of control

COc1ccccc1NC(=O)Nc1ccc(Nc2ccccc2)cc1
inactive: [19] 101 % of control | dose: 100.0 mg/kg/injection, schedule: Q04DX003 (ip), vehicle: Klucel (hydroxypropylcellulose) (HPC) 103 % of control | dose: 200.0 mg/kg/injection, schedule: Q01DX009 (ip), vehicle: Klucel (hydroxypropylcellulose) (HPC) 104 % of control | dose: 200.0 mg/kg/injection, schedule: Q04DX003 (ip), vehicle: Klucel (hydroxypropylcellulose) (HPC) 91 % of control | dose: 400.0 mg/kg/injection, schedule: Q01DX009 (ip), vehicle: Klucel (hydroxypropylcellulose) (HPC) 104 % of control | dose: 400.0 mg/kg/injection, schedule: Q04DX003 (ip), vehicle: Klucel (hydroxypropylcellulose) (HPC) 97 % of control

O=C(c1ccccc1)C(Oc1ccccc1)c1ccccc1 (stereo not drawn)
inactive: dose: 100.0 mg/kg/injection, schedule: Q04DX002 (ip), vehicle: other 111 % of control | dose: 200.0 mg/kg/injection, schedule: Q04DX002 (ip), vehicle: other 107 % of control | dose: 400.0 mg/kg/injection, schedule: Q04DX002 (ip), vehicle: other 100 % of control

O=[N+]([O-])c1cc(CN2CCCCC2)c(O)c2cccnc12
inactive: [10] 101 % of control | [11] 106 % of control | [12] 101 % of control

O=C1OCCS1
inactive: [9] 107 % of control | [4] 104 % of control | [5] 101 % of control and 105 % of control

CC1(c2cccs2)NC(=O)NC1=O (stereo not drawn)
inactive: [20] 95 % of control | [16] 102 % of control | [1] 105 % of control and 96 % of control | [21] 101 % of control | [17] 110 % of control | [2] 109 % of control and 96 % of control | [22] 97 % of control | dose: 400.0 mg/kg/injection, schedule: Q01DX009 (ip), vehicle: saline with Tween-80 109 % of control | [3] 107 % of control and 105 % of control

NNC(=O)c1cc(Cl)ccn1
inactive: [1] 96 % of control | [2] 102 % of control | [3] 98 % of control

COc1ccccc1[N+](C)(C)C
inactive: [6] 102 % of control

CNc1ccccc1C(=O)N/N=C/c1ccccc1Cl
inactive: [13] 108 % of control | [14] 93 % of control | [15] 86 % of control
